Results from publication PMC7911516, “Investigation of the Factors Responsible for the Poor Oral Bioavailability of Acacetin in Rats: Physicochemical and Biopharmaceutical Aspects” (Pharmaceutics, 2021).

Columns and labels:
[1] = parameters: method as in doi:10.5958/0974-360X.2019.00624.3; settings: oral administration at 10 mg/kg; cited from earlier work
[2] = Stability in phosphate buffers, plasma, RLM, SGF and SIF; type: physicochemical; settings: for Initially spiked amount remaining after 24 h: 10 μM
Description: The stability of acacetin was determined in several matrices such as phosphate buffers (pH 1.0, 3.0, 5.0, 7.0, 9.0, 11.0, and 13.0), plasma, RLM, SGF, and SIF. The samples spiked with acacetin (10 μM) were incubated at 37 °C, and 120 μL aliquots of the samples were collected at 0, 15, 30, 60, 120, 180, 240, 360, 420, 600, and 1440 min. The collected samples were diluted with acetonitrile to obtain a proper concentration and analyzed by the LC-MS/MS method.

rat CYP3A = assay: Disappearance in RLM with CYP isoform-selective inhibitor KCZ; type: in vitro ADME; settings: acacetin 20 μM, 10-μM KCZ, NADPH, 5 min
Description: To investigate hepatic phase I enzymes- and UGT-dependent metabolism of acacetin, the disappearance rate of acacetin at concentrations of 1–200 µM in RLM was measured in the presence of both NADPH and UDPGA. The substrate (acacetin) concentration ((S); µM) versus the initial metabolic rate (V; nmol/min/mg protein) profiles were interpreted based on Michaelis–Menten kinetics, and relevant parameters were estimated via nonlinear regression analysis (GraphPad Prism ver. 5.01; GraphPad Software, San Diego, CA, USA) using the following Michaelis–Menten equation: V = Vmax× [S]/Km× [S] where Km and Vmax are the Michaelis–Menten constant and maximal metabolic rate, respectively. The unbound intrinsic metabolic clearance (CLint) was calculated as Vmax/(Km × fuMIC). Furthermore, the disappearance of acacetin (20 μM) in the absence or presence of specific CYP isoform-selective inhibitors in RLM was determined to study the hepatic CYP-mediated metabolism of acacetin. Microsomal incubation mixtures (total volume of 200 μL) were prepared as follows: RLM (0.5 mg/mL microsomal protein), 1 mM NADPH, 10 mM MgCl2, 50 mM potassium phosphate buffer, acacetin, with or without CYP isoform-selective inhibitors (10 μM NF for rat CYP1A, 10-μM SPZ for rat CYP2C, 10-μM QND for rat CYP2D, and 10-μM KCZ for rat CYP3A). […]

[3] = Distribution coefficients in octanol–water system; type: physicochemical; settings: 25 °C
Description: Simulated gastric fluid (SGF) consisted of 0.2% (w/v) sodium chloride, 0.32% (w/v) pepsin, and 0.7% (v/v) HCl (final pH = 1.2). Simulated intestinal fluid (SIF) was prepared by dissolving 3 mM sodium taurocholate and 0.1% (w/v) pancreatin in phosphate buffer (final pH = 7.0). The solubility of acacetin was measured by adding excessive amounts of acacetin into glass vials containing 1.5 mL of water, pH 7.4 phosphate buffer, SGF, and SIF. The mixtures were allowed to reach equilibrium in a shaking incubator (FINEPCR, Gyeonggi-do, South Korea) at 500 rpm at 37 °C for 48 h. The samples were centrifuged at 16,000× g for 5 min, and the supernatant was passed through a 0.20-μm syringe filter to remove excess acacetin. Further, the concentration of acacetin in the filtrate was determined using the LC-MS/MS method. The distribution coefficients of acacetin in water (log P) and pH 7.4 phosphate buffer (log D7.4) were determined using an octanol–water system at 25 ± 0.5 °C. […] Finally, the acacetin concentrations in the octanol and water layers were determined using the LC-MS/MS method. The membrane permeability of acacetin and reference compounds (verapamil as a reference for high permeability and ranitidine as a reference for low permeability) was assessed by parallel artificial membrane permeability assay (PAMPA). […] The permeability was calculated using pION PAMPA Explorer ver. […]

Stability (stable = more than 85% remaining) ([2]; SGF and SIF): unstable
Initially spiked amount remaining after 24 h ([2]; SGF and SIF, 37 °C): 27.5–62.0%
Stability (stable = more than 85% remaining) ([2]; acidic and neutral conditions (pH 1–7)): unstable
Stability (stable = more than 85% remaining) ([2]; basic conditions (pH 9, 11, 13)): stable
Remaining after 24 h ([2]; pH 7 phosphate buffer and simulated GI fluids (as worded in abstract)): 27.5–62.0%
Initially spiked amount remaining after 24 h ([2]; phosphate buffers, pH range 1–7, 37 °C): 16.1–35.9%
Stability (stable = more than 85% remaining) ([2]; plasma and RLM, absence of NADPH and UDPGA/alamethicin): stable
Reduction of relative disappearance rate in presence of KCZ (rat CYP3A): 43.7%
logD ([3]; n-octanol/pH 7.4 phosphate buffer, pH 7.4, n-octanol/pH 7.4 phosphate buffer, read-out: Log D7.4): > 3
logP ([3]; octanol/water, n-octanol/water): > 3
SMILES: COc1ccc(-c2cc(=O)c3c(O)cc(O)cc3o2)cc1 [acacetin, Acacetin]
Cmax [1]: 1668 ng/mL
bioavailability [1]: 84%
